Reference: patent publication US7507739B2, “6-[(substituted)phenyl]triazolopyrimidines as anticancer agents” (Wyeth, priority 2003, dated 2009)

Tests used:
KB cells = experiment: MTS cytotoxicity test with KB cells; format: cell-based; details: Homo sapiens; KB cells, MTS; read-out: IC50 KB
From the text: (§1) Human cancer cell lines, unless otherwise noted, are obtained from the American Type Culture Collection (Rockville, Md.). The following drug-sensitive parental cell lines, and their derived drug-resistant counterparts, are obtained from the originators as listed: (a) S1 (parental line from a subclone of human colon carcinoma line LS174T) and derived S1-M1-3.2 (herein called S1-M1) which expresses the MXR drug transporter protein, are provided by Dr. L. Greenberger, Wyeth Research (Rabindran, S. K., He, H., Singh, M., Brown, E., Collins, K. I., Annable, T., and Greenberger, L. M. Reversal of a novel multidrug resistance mechanism in human colon carcinoma cells by fumitremorgin C. Cancer Res., 58:5850-5858,1998); (b) parental HL-60 human promyelocytic leukemia line and derived HL-60/ADR, which expresses the MRP1 drug transporter protein, are provided by Dr. M. Center, University of Kansas (McGrath, T., and Center, M. S. Adriamycin resistance in HL60 cells in the absence of detectable P-glycoprotein. Biochem. Biophys. […] J. Biol. Chem., 261: 7762-7770,1986) via Dr. L. Greenberger, Wyeth Research.
(§2) The assay, which is sold in kit form by Promega (Madison, Wis.; CellTiter 96 AQueous Non-Radioactive Cell Proliferation Assay), is based on the conversion by viable cells, but not by dead cells, of the tetrazolium salt, MTS (3-(4,5-dimethylthiazol-2-yl)-5-(3-carboxymethoxyphenyl)-2-(4-sulphophenyl)-2H-tetrazolium, inner salt), into a water-soluble colored formazan which is detected by spectrophotometry. Compounds are tested at nine concentrations, in order to determine IC50 values. For the test procedure, cells are harvested by trypsinization (or, in the case of non-adherent cells, by simple resuspension), washed, counted and distributed to wells of 96-well flat-bottom microtiter plates at 1000 cells per well in 200 μL of medium. In addition, one row of wells on a separate plate received cells as above (“time 0” plate). All plates are incubated at 37° in humidified 5% CO2 in air for about 24 hr.
(§3) On day 2, compounds for test are diluted and added to wells. Compounds are dissolved in DMSO at 10 mg/mL. For each compound, nine serial 2-fold dilutions are prepared in DMSO. Ten μL of each dilution in DMSO is transferred to 100 μL of medium, mixed well, and then 5 μL of this dilution is transferred in quadruplicate to wells containing cells. […] Plates are returned to the incubator for three days. At the time of drug addition to the experimental plates, the MTS assay is run on the “time 0” plate. This produced the “time 0 MTS value” which is related to the number of viable cells per well at the time of drug addition.
(§4) After three days of culture with test compounds (day 5 overall), the MTS assay is done on all wells of the experimental plates. The absorbance values of the quadruplicate sample wells are averaged and divided by the average of the “time 0” values. […] The nine values for each compound are plotted against concentration, and the concentration that produced a relative color yield half way between the maximum and minimum is taken as the IC50 value.
(§5) The KB lines express different amounts of the P-glycoprotein (MDR1) membrane pump which produces resistance to the action of many cytotoxic compounds, including paclitaxel and vincristine. The parental KB line expresses no P-glycoprotein, KB-8-5 expresses moderate levels of the protein, and KB-V1 expresses very high levels.

KB-8-5 cells = experiment: MTS cytotoxicity test with KB-8-5 cells (moderate P-glycoprotein); format: cell-based, human; details: for IC50: Homo sapiens, KB-8-5 cells, MTS, read-out: IC50 KB 8.5; for Ratio 8.5/KB: IC50 on KB 8.5 cells/IC50 on KB cells
From the text: as §1, §2, §3, §4, §5

KB-V1 cells = experiment: MTS cytotoxicity test with KB-V1 cells (very high P-glycoprotein); format: cell-based, human; details: for IC50: Homo sapiens, KB-V1 cells, MTS; for Ratio VI/KB: IC50 on KB VI cells/IC50 on KB cells
From the text: as §1, §2, §3, §4, §5

HL-60 cells = experiment: MTS cytotoxicity test with HL-60 cells; format: cell-based; details: Homo sapiens; HL-60 cells, MTS; read-out: IC50 HL-60
From the text: as §1, §2, §3, §4
(§6) HL-60/ADR cells overexpress the multidrug resistance protein MRP1 which mediates resistance to some chemotherapeutics (Gottesman, M. M., Fojo, T., and Bates, S. E. Multidrug resistance in cancer: role of ATP-dependent transporters. Nature Rev. Cancer, 2: 48-58, 2002). The IC50 values of representative examples of this invention, as well as reference compounds, on HL-60/ADR are compared to values on the sensitive parental HL-60 line.

HL-60/ADR cells = experiment: MTS cytotoxicity test with HL-60/ADR cells (MRP1); format: cell-based, human; details: for Ratio: IC50 on HL-60/ADR cells/IC50 on HL-60 cells
From the text: as §1, §2, §3, §4, §6

S1 cells = experiment: MTS cytotoxicity test with S1 cells; format: cell-based; details: Homo sapiens
From the text: as §1, §2, §3, §4
(§7) S1-M1 cells overexpress the MXR transporter which mediates resistance to some chemotherapeutics (Gottesman, M. M., Fojo, T., and Bates, S. E. Miltidrug resistance in cancer: role of ATP-dependent transporters. Nature Rev. Cancer, 2: 48-58, 2002). The IC50 values of representative examples of this invention, as well as reference compounds, on S1-M1 are compared to values on the sensitive parental S1 line.

S1-M1 cells = experiment: MTS cytotoxicity test with S1-M1 cells (MXR); format: cell-based, human; details: for IC50: Homo sapiens, S1-M1 cells, MTS, read-out: IC50 S1-M1; for Ratio: IC50 on S1-M1 cells/IC50 on S1 cells
From the text: as §1, §2, §3, §4, §7

COLO 205 cells = experiment: MTS cytotoxicity test with COLO 205 cells; format: cell-based, human; details: 3 days
Method in brief: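 COLO 205 human colon carcinoma cells, 1000 per well, exposed 3 days at 37° C to nine 2-fold dilutions, typical final top concentration 5 μM. MTS absorbance normalized to time-0 plate; IC50 is concentration giving colour yield midway between untreated and fully killed controls.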

MAP-rich tubulin = experiment: Tubulin polymerization test with MAP-rich tubulin; format: biochemical, bovine; details: 0.3 μM compound, 20 min, fold enhancement over control
Method in brief: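 Bovine brain MAP-rich tubulin (1.3 mg/mL) in PEM buffer pH 6.9 with 1 mM GTP, compounds at 0.3 μM final (0.3% DMSO), 24° for 60 min. Turbidity read at 340 nm each minute, baseline-subtracted; mean A340 at 20 min divided by solvent control gives fold enhancement.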

pure tubulin = experiment: Tubulin polymerization test with pure tubulin without GTP; format: biochemical, bovine; details: no GTP
Description: (§8) Medium is RPMI-1640 with L-glutamine, supplemented with 10% heat-inactivated fetal calf serum, 100 units/ml penicillin, and 100 μg/ml streptomycin (Gibco, Grand Island, N.Y.). Microtubule-associated protein (MAP)-rich tubulin, containing about 70% tubulin and 30% MAPs (#ML113), and highly purified tubulin (>99% pure, #TL238), both from bovine brain, are obtained from Cytoskeleton, Inc., Denver, Colo. PEM buffer (80 mM piperazine-N,N′-bis[2-ethanesulfonic acid], pH 6.9, 1 mM ethylene glycol-bis(β-aminoethyl ether)-N,N,N′,N′-tetraacetic acid, 1 mM magnesium chloride) and guanosine 5′-triphosphate (GTP) are also obtained from Cytoskeleton. [3H]paclitaxel, specific activity 14.7 Ci/mmol, is purchased from Moravek Biochemicals (Brea, Calif.). [^3H]vinblastine, specific activity 9.60 Ci/mmol and MicroSpin G-50 columns are obtained from Amersham Biosciences (Piscataway, N.J.). […] Other reagents are obtained from Sigma (St. Louis, Mo.).
Two variations of this procedure are done, one using MAP-rich tubulin and one using pure tubulin.
The procedure with pure tubulin is similar except for the following changes. […] The supernatant after centrifugation is dispensed to a 96-well plate already containing compounds. Each compound is tested in duplicate at six serial 3-fold dilutions starting at 24.3 μM. The plate reader is thermostated at 35°.

tubulin heterodimer [1] = experiment: Competitive binding test, [3H]vinblastine; parameters: species or system bovine; details: [3H]vinblastine 100 nM
Description: as §8
(§9) The binding of examples of this invention to highly purified tubulin is studied by competitive inhibition methods. […] To study possible competition at the taxane site, on the other hand, polymerized tubulin (microtubules) is used because paclitaxel binds preferentially to microtubules.
(§10) Highly purified tubulin is dissolved in PEM buffer without GTP and used at a final concentration of 1.0 to 1.3 mg/ml (10 to 13 μM). […] These solutions are incubated at 24° for 1 hr and then applied to MicroSpin G-50 columns which are centrifuged for 2 min at 3000 rpm in an Eppendorf 5415C microfuge. An aliquot of each column effluent (containing tubulin and bound radioligand) is mixed with scintillation fluid and counted in a liquid scintillation spectrometer. […] The ability of the competitor to inhibit the binding of the radioligand is expressed as a percentage of control binding in the absence of any competitor.

tubulin heterodimer [2] = experiment: Competitive binding test, [3H]colchicine; parameters: species or system bovine; details: [3H]colchicine 50 nM
Description: as §8, §9, §10

microtubules = experiment: Competitive binding test, [3H]paclitaxel; parameters: species or system bovine; details: [3H]paclitaxel 2.1 μM, competitor 20 μM (5 μM for unlabeled paclitaxel)
Description: as §8, §9
For competition with [^3H]paclitaxel, highly purified tubulin is dissolved in PEM buffer containing 0.75 M glutamate and 25 μM dideoxy-GTP; final protein concentration is 0.25 to 0.35 mg/mL (2.5 to 3.5 μM). These conditions foster the rapid formation of short, stable microtubule polymers (Hamel, E., del Campo, A. A., and Lin, C. M. Stability of tubulin polymers formed with dideoxyguanosine nucleotides in the presence and absence of microtubule-associated proteins. J. Biol. Chem., 259: 2501-2508, 1984). This solution is incubated for 30 min at 37° to allow microtubules to form. Then [^3H]paclitaxel (final concentration of 2.1 μM, 1.2 Ci/mmol) and competitor (final concentration of 20 μM, except 5 μM for unlabeled paclitaxel) are added to aliquots of the polymerized tubulin solution and incubation at 37° is continued for another 30 min. […] The reactions are then centrifuged at top speed in an Eppendorf 5415C microfuge for 20 min at room temperature in order to pellet the microtubule protein. Triplicate aliquots of each supernatant are mixed with scintillation fluid and counted in a liquid scintillation spectrometer. From the amount of radioactivity in the supernatants and the measured total starting radioactivity, the amount of [^3H]paclitaxel bound to pelleted microtubule protein is calculated. The ability of each competitor to inhibit radioligand binding to pelleted protein is expressed as a percent of controls without any competitor.

Row | SMILES | IC50 (KB cells) | IC50 (KB-8-5 cells) | Ratio 8.5/KB (KB-8-5 cells) | IC50 (KB-V1 cells) | Ratio VI/KB (KB-V1 cells) | IC50 (HL-60 cells) | Ratio (HL-60/ADR cells) | IC50 (S1 cells) | IC50 (S1-M1 cells) | Ratio (S1-M1 cells) | other results
1 | CC[C@@]1(O)C(=O)OCc2c1cc1n(c2=O)Cc2cc3ccccc3nc2-1 [Camptothecin, reference compound] | 24 nM | 33 nM | 1.4 | 39 nM | 1.6 | 12 nM | 1.4 | 8.9 nM | 17 nM | 1.9 | IC50 (HL-60/ADR cells; Homo sapiens, HL60/ADR, HL-60/ADR cells, MTS, read-out: IC50 HL-60/ADR): 17 nM
2 | COc1cccc2c1C(=O)c1c(O)c3c(c(O)c1C2=O)C[C@@](O)(C(=O)CO)C[C@@H]3O[C@H]1C[C@H](N)[C@H](O)[C@H](C)O1 [Doxorubicin, reference compound] | 23 nM | 70 nM | 3.0 | > 3000 nM | >130 | 23 nM | 93 | 34 nM |  | 74 | Ratio VI/KB (KB-V1 cells; listed as doxorubicin): > 130
3 | O=C1c2c(O)ccc(O)c2C(=O)c2c(NCCNCCO)ccc(NCCNCCO)c21 [Mitoxantrone, reference compound] | 25 nM | 27 nM | 1.1 |  | 77 | 9.5 nM | 17 | 10 nM | > 3000 nM | >300 | Ratio (S1-M1 cells; listed as mitoxantrone): > 300
4 | C[C@H](Nc1c(-c2c(F)cc(OCCCN3CCOCC3)cc2F)c(Cl)nc2ncnn12)C(F)(F)F.Cl [Example 11a, 5-Chloro-6-[2,6-difluoro-4-(3-morpholin-4-ylpropoxy)phenyl]-N-[(1S)-2,2,2-trifluoro-1-methylethyl][1,2,4]triazolo[1,5-a]pyrimidin-7-amine Hydrogen chloride] |  |  |  |  |  |  |  |  |  |  | IC50 (COLO 205 cells): 51 nM; A340 Compound/A340 Control (MAP-rich tubulin): 6.8; absorbance increase, polymerization of pure tubulin (pure tubulin; 2.7 μM): no effect; absorbance increase, polymerization of pure tubulin (pure tubulin; 8.1 μM): lower and less rapid increase; A340 at 0 min (pure tubulin; 24.3 μM): 0; A340 at 5 min (pure tubulin; 24.3 μM): 0.24; A340 at 10 min (pure tubulin; 24.3 μM): 0.24; A340 at 15 min (pure tubulin; 24.3 μM): 0.23; A340 at 20 min (pure tubulin; 24.3 μM): 0.22; absorbance increase, polymerization of pure tubulin (pure tubulin; 24.3 μM, first 5 min): rapid increase in absorbance; [3H]Vinblastine binding, percent of control without competitor, Mean (tubulin heterodimer [1]): 12%; [3H]Colchicine binding, percent of control without competitor, Mean (tubulin heterodimer [2]): 121%; [3H]Paclitaxel binding, percent of control without competitor, Mean (microtubules): 107%
